Test results taken from patent US20250237649A1 (priority 2021, published 2025).
“Also recorded” adds a separate entry of the source. Like-named read-outs stand apart in the source and are kept apart here. Non-standard residues stand in square brackets, D forms with d. Residues, ends and D or L forms follow the SMILES beside them. *: point of attachment. Sta = CC(C)C[C@H](N)[C@@H](O)CC(=O)O; pNA = O=[N+]([O-])c1ccc(N*)cc1; Isovaleryl = CC(C)CC(=O)*; Cbz = O=C(OCc1ccccc1)*

Key:
M. bovis cells [1] = format: cell-based, Mycobacterium bovis
[2] = Cytotoxicity towards HepG2 hepatocytes; format: cell-based; conditions: human, read-out: TC50, cytotoxicity towards HepG2 hepatocytes
Protocol: (§1) Cells were seeded in plates and incubated overnight in a humidified incubator at 37° C., 5% CO2. […] After 72-hours of incubation, CellTiter-Glo® reagent (Promega) was added to plates and the relative luminescent units (RLU) were measured using a Synergy 4 plate reader (Biotek). […] Growth inhibition curves were fitted using the Levenberg-Marquardt algorithm. The IC50 was defined as the compound concentration that produced 50% of the growth inhibitory response.

THP1 macrophages = test: Cytotoxicity against THP1 macrophages; format: cell-based
Mtb in THP-1 macrophages = test: Antitubercular activity (Mtb survival) in THP-1 macrophages; format: cell-based, Mycobacterium tuberculosis; conditions: for IC50: Mycobacterium tuberculosis, THP1MACROPHAGES
Text: FIG. 18A depicts time-dependent antitubercular activity in THP-1 macrophages. FIG. 18B depicts the average of the Hill slope values corresponding to the IC50 values used to plot the mean IC50 in FIG. 18A.

[3] = Cytotoxicity towards RAW macrophages; format: cell-based; conditions: mouse, read-out: TC50, cytotoxicity towards RAW macrophages
Protocol: as §1

M. bovis cells [4] = format: cell-based, Mycobacterium bovis; conditions: cell culture
[5] = biological target: T1, purified recombinant Hip1 (Mycobacterium tuberculosis, UniProt P9WHR3); conditions: cited from earlier work
T1 sequence (P9WHR3 31-520): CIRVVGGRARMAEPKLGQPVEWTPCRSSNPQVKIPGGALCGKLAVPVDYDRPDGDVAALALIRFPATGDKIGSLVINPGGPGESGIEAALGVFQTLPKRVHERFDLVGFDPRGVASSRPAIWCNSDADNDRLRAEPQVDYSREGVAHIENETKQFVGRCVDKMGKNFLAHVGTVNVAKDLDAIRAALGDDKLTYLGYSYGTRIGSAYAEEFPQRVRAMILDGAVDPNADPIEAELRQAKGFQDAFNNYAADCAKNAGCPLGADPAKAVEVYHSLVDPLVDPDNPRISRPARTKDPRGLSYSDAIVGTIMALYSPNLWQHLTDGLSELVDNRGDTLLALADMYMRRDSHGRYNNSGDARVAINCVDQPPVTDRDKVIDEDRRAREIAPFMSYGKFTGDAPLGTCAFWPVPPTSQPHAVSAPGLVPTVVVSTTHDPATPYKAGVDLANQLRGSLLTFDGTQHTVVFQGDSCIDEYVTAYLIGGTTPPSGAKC

[6] = THP-1, 24 h, read-out: IC50 Mean ± SEM
[7] = THP-1, 72 h, read-out: IC50 Mean ± SEM
[8] = THP-1, 72 h, read-out: IC50 Range
[9] = THP-1 macrophages, time point 48 h, read-out: IC50 Mean ± SEM
[10] = THP-1 macrophages, time point 48 h, read-out: IC50 Range

NCCc1ccc(S(=O)(=O)F)cc1 [AEBSF]
Inhibition of cleavage of UFNG1 by M. bovis cells (M. bovis cells [1]): most significant inhibition

COC(=O)C(=O)[C@H](CC(C)C)NC(=O)[C@H](CCCCN)NC(=O)[C@H](Cc1ccccc1)NC(=O)OCc1ccccc1 [Cbz-Phe-Lys-Leu-CO—CO2Me]
Inhibition of cleavage of UFNG1 by M. bovis cells (M. bovis cells [1]; FRET substrate UFNG1): most significant inhibition | CC50 at 72 h [2]: > 100 µM | Cytotoxicity against THP1 macrophages (THP1 macrophages): does not have significant cytotoxicity | IC50 (Mtb in THP-1 macrophages; [6]): 69.7 ± 18.7 µM | IC50 (Mtb in THP-1 macrophages; [7]): 13.9 ± 4.86 µM | IC50 (Mtb in THP-1 macrophages; [8]): 8.24 to 23.6 µM | IC50 (Mtb in THP-1 macrophages; [9]): 19.6 ± 4.98 µM | IC50 (Mtb in THP-1 macrophages; [10]): 12.7 to 29.3 µM | Mtb survival in THP1 macrophages (Mtb in THP-1 macrophages): effectively reduces Mtb survival | IC50 Range (Mtb in THP-1 macrophages; THP-1 macrophages, time point 24 h): 51.09 to 8.38 μM | CC50 at 72 h [3]: > 100 µM

CC(C)C[C@H](NC(=O)[C@H](CCCCN)NC(=O)[C@H](Cc1ccccc1)NC(=O)OCc1ccccc1)C(=O)Nc1ccc([N+](=O)[O-])cc1 [Cbz-Phe-Lys-Leu-pNa] (Cbz-Phe-Lys-Leu-pNA)
Cleavage of substrate by M. bovis cells (M. bovis cells [4]): cleaved by M. bovis

CC(C)C[C@H](NC(=O)[C@H]1O[C@@H]1C(=O)O)C(=O)NCCCCN=C(N)N [E-64]
Inhibition of cleavage of UFNG1 by M. bovis cells (M. bovis cells [1]; FRET substrate UFNG1): do not inhibit cleavage of UFNG1 appreciably

O=C(O)CN(CCN(CC(=O)O)CC(=O)O)CC(=O)O [EDTA]
Inhibition of cleavage of UFNG1 by M. bovis cells (M. bovis cells [1]; FRET substrate UFNG1): do not inhibit cleavage of UFNG1 appreciably

COC(=O)C(=O)[C@H](C[C@@H]1CCNC1=O)NC(=O)[C@H](CCCCN)NC(=O)[C@H](Cc1ccccc1)NC(=O)OCc1ccccc1 [Inhibitor Compound 2, Cbz-Phe-Lys-Glnlac-CO—CO2Me]
Inhibition of cleavage of UFNG1 by M. bovis cells (M. bovis cells [1]; FRET substrate UFNG1): most significant inhibition | Cytotoxicity against THP1 macrophages (THP1 macrophages): does not have significant cytotoxicity | IC50 (Mtb in THP-1 macrophages; [6]): 104 ± 39.1 µM | IC50 (Mtb in THP-1 macrophages; THP-1, 24 h, read-out: IC50 Range): 44.4 to 178 µM | IC50 (Mtb in THP-1 macrophages; [7]): 51.8 ± 14.7 µM | IC50 (Mtb in THP-1 macrophages; [8]): 25.6 to 53.3 µM | IC50 (Mtb in THP-1 macrophages; [9]): 58.4 ± 1.15 µM | IC50 (Mtb in THP-1 macrophages; [10]): 57.3 to 59.6 µM | Mtb survival in THP1 macrophages (Mtb in THP-1 macrophages): effectively reduces Mtb survival

O=S(=O)(F)Cc1ccccc1 [PMSF, phenylmethylsulfonyl fluoride]
Inhibition of cleavage of UFNG1 by M. bovis cells (M. bovis cells [1]): did not significantly inhibit cleavage | Inhibition of Hip1 (studies have shown) [5]: not an effective inhibitor of purified recombinant Hip1; also recorded: poor inhibitor of Hip1

CC(C)C[C@H](NC(=O)[C@@H](NC(=O)N[C@@H](Cc1ccccc1)C(=O)O)[C@@H]1CCN=C(N)N1)C(=O)N[C@H](C=O)Cc1ccccc1 [chymostatin]
Inhibition of Hip1 (studies have shown) [5]: inhibit Hip1

CC(=O)N[C@@H](CC(C)C)C(=O)N[C@@H](CC(C)C)C(=O)N[C@H](C=O)CCCNC(=N)N [leupeptin]
Inhibition of Hip1 (studies have shown) [5]: inhibit Hip1

CC(C)CC(=O)N[C@H](C(=O)N[C@H](C(=O)N[C@@H](CC(C)C)[C@@H](O)CC(=O)N[C@@H](C)C(=O)N[C@@H](CC(C)C)[C@@H](O)CC(=O)O)C(C)C)C(C)C [pepstatin] (Isovaleryl-VV[Sta]A[Sta]-OH)
Inhibition of cleavage of UFNG1 by M. bovis cells (M. bovis cells [1]; FRET substrate UFNG1): do not inhibit cleavage of UFNG1 appreciably
